#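 Step 1: Grow cells in 96-well plates. Step 2: Expose to compound for 48 hours at 5 concentrations. Step 3: Interpolate endpoints linearly; if unreached, use highest concentration. GI50: concentration for 50% inhibition of growth.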 The source made the active and inactive calls. Cut-off read from the data, not from the text of the source: active = GI50 up to about 1.1 µM and inactive = higher.
# Experiments:
# Assay in all cases: NCI-60 cell line screen, 48 h
# 786-0 = tested on: 786-0
# A498 = tested on: A498
# A549 = tested on: A549
# ACHN = tested on: ACHN
# BT-549 = tested on: BT-549
# CAKI-1 = tested on: CAKI-1
# CCRF-CEM = tested on: CCRF-CEM
# COLO 205 = tested on: COLO 205
# DU-145 = tested on: DU-145
# EKVX = tested on: EKVX
# HCC 2998 = tested on: HCC 2998
# HCT-116 = tested on: HCT-116
# HCT-15 = tested on: HCT-15
# HL-60 = tested on: HL-60
# HOP-62 = tested on: HOP-62
# HT-29 = tested on: HT-29
# Hs-578T = tested on: Hs-578T
# IGROV-1 = tested on: IGROV-1
# K562 = tested on: K562
# KM12 = tested on: KM12
# LOX IMVI = tested on: LOX IMVI
# M14 = tested on: M14
# MCF7 = tested on: MCF7
# MDA-MB-231 = tested on: MDA-MB-231
# MDA-MB-435 = tested on: MDA-MB-435
# MDA-N = tested on: MDA-N
# MOLT-4 = tested on: MOLT-4
# Malme-3M = tested on: Malme-3M
# NCI-H226 = tested on: NCI-H226
# NCI-H23 = tested on: NCI-H23
# NCI-H460 = tested on: NCI-H460
# NCI-H522 = tested on: NCI-H522
# NCI/ADR-RES = tested on: NCI/ADR-RES
# OVCAR-3 = tested on: OVCAR-3
# OVCAR-4 = tested on: OVCAR-4
# OVCAR-5 = tested on: OVCAR-5
# OVCAR-8 = tested on: OVCAR-8
# PC-3 = tested on: PC-3
# RPMI-8226 = tested on: RPMI-8226
# RXF 393 = tested on: RXF 393
# SF-268 = tested on: SF-268
# SF-295 = tested on: SF-295
# SF-539 = tested on: SF-539
# SK-MEL-28 = tested on: SK-MEL-28
# SK-MEL-2 = tested on: SK-MEL-2
# SK-MEL-5 = tested on: SK-MEL-5
# SK-OV-3 = tested on: SK-OV-3
# SN12C = tested on: SN12C
# SNB-19 = tested on: SNB-19
# SR = tested on: SR
# SW-620 = tested on: SW-620
# T47D = tested on: T47D
# TK-10 = tested on: TK-10
# U-251 = tested on: U-251
# UACC-257 = tested on: UACC-257
# UACC-62 = tested on: UACC-62
# SNB-75 = tested on: SNB-75
# UO-31 = tested on: UO-31
smiles,measurement,setting,value
N#Cc1ccc(CSC2=C(c3ccc(Cl)cc3)S/C(=C3\SC(SCc4ccc(C#N)cc4)=C(c4ccc(Cl)cc4)S3)S2)cc1,GI50,786-0,> 100 µM (inactive)
same,GI50,A498,> 100 µM (inactive)
same,GI50,A549,> 100 µM (inactive)
same,GI50,ACHN,> 100 µM (inactive)
same,GI50,BT-549,> 100 µM (inactive)
same,GI50,CAKI-1,> 100 µM (inactive)
same,GI50,CCRF-CEM,> 100 µM (inactive)
same,GI50,COLO 205,> 100 µM (inactive)
same,GI50,DU-145,> 100 µM (inactive)
same,GI50,EKVX,> 100 µM (inactive)
same,GI50,HCC 2998,> 100 µM (inactive)
same,GI50,HCT-116,> 100 µM (inactive)
same,GI50,HCT-15,> 100 µM
same,GI50,HL-60,> 100 µM (inactive)
same,GI50,HOP-62,> 100 µM (inactive)
same,GI50,HT-29,> 100 µM (inactive)
same,GI50,Hs-578T,> 100 µM (inactive)
same,GI50,IGROV-1,> 100 µM (inactive)
same,GI50,K562,> 100 µM (inactive)
same,GI50,KM12,> 100 µM (inactive)
same,GI50,LOX IMVI,> 100 µM (inactive)
same,GI50,M14,> 100 µM (inactive)
same,GI50,MCF7,> 100 µM (inactive)
same,GI50,MDA-MB-231,> 100 µM (inactive)
same,GI50,MDA-MB-435,> 100 µM (inactive)
same,GI50,MDA-N,> 100 µM (inactive)
same,GI50,MOLT-4,> 100 µM (inactive)
same,GI50,Malme-3M,> 100 µM (inactive)
same,GI50,NCI-H226,> 100 µM (inactive)
same,GI50,NCI-H23,> 100 µM (inactive)
same,GI50,NCI-H460,> 100 µM (inactive)
same,GI50,NCI-H522,> 100 µM (inactive)
same,GI50,NCI/ADR-RES,> 100 µM (inactive)
same,GI50,OVCAR-3,> 100 µM (inactive)
same,GI50,OVCAR-4,> 100 µM (inactive)
same,GI50,OVCAR-5,> 100 µM (inactive)
same,GI50,OVCAR-8,> 100 µM (inactive)
same,GI50,PC-3,> 100 µM (inactive)
same,GI50,RPMI-8226,> 100 µM (inactive)
same,GI50,RXF 393,> 100 µM (inactive)
same,GI50,SF-268,> 100 µM (inactive)
same,GI50,SF-295,> 100 µM (inactive)
same,GI50,SF-539,> 100 µM (inactive)
same,GI50,SK-MEL-28,> 100 µM (inactive)
same,GI50,SK-MEL-2,> 100 µM (inactive)
same,GI50,SK-MEL-5,> 100 µM (inactive)
same,GI50,SK-OV-3,> 100 µM (inactive)
same,GI50,SN12C,> 100 µM (inactive)
same,GI50,SNB-19,> 100 µM (inactive)
same,GI50,SR,> 100 µM (inactive)
same,GI50,SW-620,> 100 µM (inactive)
same,GI50,T47D,> 100 µM (inactive)
same,GI50,TK-10,> 100 µM (inactive)
same,GI50,U-251,> 100 µM (inactive)
same,GI50,UACC-257,> 100 µM (inactive)
same,GI50,UACC-62,> 100 µM (inactive)
OC(C1CCCCCCCCCC1)C(O)C1CCCCCCCCCC1 (stereo not drawn),GI50,786-0,> 100 µM (inactive)
same,GI50,A549,> 100 µM (inactive)
same,GI50,ACHN,> 100 µM (inactive)
same,GI50,BT-549,> 100 µM (inactive)
same,GI50,CAKI-1,> 100 µM (inactive)
same,GI50,CCRF-CEM,> 100 µM (inactive)
same,GI50,COLO 205,> 100 µM (inactive)
same,GI50,DU-145,> 100 µM (inactive)
same,GI50,EKVX,> 100 µM (inactive)
same,GI50,HCC 2998,> 100 µM (inactive)
same,GI50,HCT-116,> 100 µM (inactive)
same,GI50,HCT-15,> 100 µM
same,GI50,HL-60,> 100 µM (inactive)
same,GI50,HOP-62,> 100 µM (inactive)
same,GI50,HT-29,> 100 µM (inactive)
same,GI50,Hs-578T,> 100 µM (inactive)
same,GI50,IGROV-1,> 100 µM (inactive)
same,GI50,K562,55.1 µM (inactive)
same,GI50,KM12,> 100 µM (inactive)
same,GI50,LOX IMVI,> 100 µM (inactive)
same,GI50,M14,> 100 µM (inactive)
same,GI50,MCF7,> 100 µM (inactive)
same,GI50,MDA-MB-231,> 100 µM (inactive)
same,GI50,MDA-MB-435,> 100 µM (inactive)
same,GI50,MDA-N,> 100 µM (inactive)
same,GI50,MOLT-4,37.1 µM (inactive)
same,GI50,Malme-3M,> 100 µM (inactive)
same,GI50,NCI-H226,> 100 µM (inactive)
same,GI50,NCI-H23,43.2 µM (inactive)
same,GI50,NCI-H460,> 100 µM (inactive)
same,GI50,NCI-H522,61 µM (inactive)
same,GI50,NCI/ADR-RES,> 100 µM (inactive)
same,GI50,OVCAR-3,> 100 µM (inactive)
same,GI50,OVCAR-4,> 100 µM (inactive)
same,GI50,OVCAR-5,> 100 µM (inactive)
same,GI50,OVCAR-8,> 100 µM (inactive)
same,GI50,PC-3,> 100 µM (inactive)
same,GI50,RPMI-8226,> 100 µM (inactive)
same,GI50,RXF 393,93.1 µM (inactive)
same,GI50,SF-268,> 100 µM (inactive)
same,GI50,SF-295,> 100 µM (inactive)
same,GI50,SF-539,> 100 µM (inactive)
same,GI50,SK-MEL-28,> 100 µM (inactive)
same,GI50,SK-MEL-2,> 100 µM (inactive)
same,GI50,SK-MEL-5,> 100 µM (inactive)
same,GI50,SK-OV-3,> 100 µM (inactive)
same,GI50,SN12C,> 100 µM (inactive)
same,GI50,SNB-19,> 100 µM (inactive)
same,GI50,SNB-75,> 100 µM (inactive)
same,GI50,SR,> 100 µM (inactive)
same,GI50,SW-620,> 100 µM (inactive)
same,GI50,T47D,> 100 µM (inactive)
same,GI50,TK-10,> 100 µM (inactive)
same,GI50,U-251,> 100 µM (inactive)
same,GI50,UACC-257,> 100 µM (inactive)
same,GI50,UACC-62,> 100 µM (inactive)
same,GI50,UO-31,> 100 µM (inactive)

# — ChEMBL document CHEMBL1201862, “PubChem BioAssay data set” (2004)
